The results in this text go back to US10717712B2, “Pegylated prodrugs of phenolic TRPV1 agonists” (CONCENTRIC ANALGESICS, INC., priority 2018, dated 2020).

This data set is described as follows: Aqueous solubility in DI water (visual inspection). The data set is classed as physicochemical. As to conditions: HCl salt, incubated at 50 or 100 mg/mL. The protocol:
In order to determine the aqueous solubility of the compounds described herein, the HCl salts of the following compounds were incubated at either 50 or 100 mg/mL in DI water and visually inspected for insoluble material.

One may read the solubility as how much of the substance goes into solution per volume. In the case of `CNCC1CN(C(=O)CCOCCOCCOCCOC)CCN1C(=O)Oc1ccc(CNC(=O)CCCC/C=C/C(C)C)cc1OC` (stereo not shown) [Compound 1, (E)-2-methoxy-4-((8-methylnon-6-enamido)methyl)phenyl 2-((methylamino)methyl)-4-(2,5,8,11-tetraoxatetradecan-14-oyl)piperazine-1-carboxylate], the solubility is over 100 mg/mL.
